Where a SMILES comes first, the peptide text is derived from it. Bridges are numbered along the chain shown (N, C = ends). [ ]: non-standard residue; d: D form. The star is where a group is joined. hPhe(3-Cl-4-CF3) = N[C@@H](CCc1ccc(C(F)(F)F)c(Cl)c1)C(=O)O; NPrPhe(4-CF3) = CCCN[C@@H](Cc1ccc(C(F)(F)F)cc1)C(=O)O; NMeGly(cPent) = CN[C@H](C(=O)O)C1CCCC1; NEtLeu = CCN[C@@H](CC(C)C)C(=O)O; NMeD = CN[C@@H](CC(=O)O)C(=O)O; NMeL = CN[C@@H](CC(C)C)C(=O)O; NMeNva = CCC[C@H](NC)C(=O)O; Morpholide = C1CN(*)CCO1; Piperidide = C1CCN(*)CC1; Ac4c = NC1(C(=O)O)CCC1; NPrGly = CCCNCC(=O)O; NEtG = CCNCC(=O)O; Sar = CNCC(=O)O
Tests used:
[1] = tested on: human lung cancer strain NCI-H441; test: cells; conditions: NCI-H441, 96 h, read-out: NCI-H441 IC50 (nM), NCI-H441 cell proliferation, 4 days, CellTiter-Glo;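 note: cell proliferation inhibition after four days measured by CellTiter-Glo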
[2] = molecular target: GDP-bound HRAS wild-type protein (Homo sapiens, UniProt P01112); test: Binding to HRAS by surface plasmon resonance (SPR), Single Cycle Kinetics; conditions: ratio of KD for GDP-bound HRAS wild-type protein to KD for KRAS, SPR
Sequence of GDP-bound HRAS wild-type protein (P01112 whole entry): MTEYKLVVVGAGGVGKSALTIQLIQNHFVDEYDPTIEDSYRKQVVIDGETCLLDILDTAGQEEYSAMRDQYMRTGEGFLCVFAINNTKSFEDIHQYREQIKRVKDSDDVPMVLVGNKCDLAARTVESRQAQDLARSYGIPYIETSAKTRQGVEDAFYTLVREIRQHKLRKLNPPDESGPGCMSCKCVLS

[3] = molecular target: GDP-bound KRAS wild-type protein (Homo sapiens, UniProt P01116); test: Binding to KRAS by surface plasmon resonance (SPR), Single Cycle Kinetics; conditions: SPR, Single Cycle Kinetics, GDP-bound KRAS wild-type protein; read-out: KRAS KD
Sequence of GDP-bound KRAS wild-type protein (P01116 whole entry): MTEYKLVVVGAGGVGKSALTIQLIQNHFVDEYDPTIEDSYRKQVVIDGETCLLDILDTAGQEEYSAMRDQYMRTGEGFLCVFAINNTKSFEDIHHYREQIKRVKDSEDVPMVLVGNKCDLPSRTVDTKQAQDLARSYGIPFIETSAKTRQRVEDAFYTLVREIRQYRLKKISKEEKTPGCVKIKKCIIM

[4] = molecular target: GDP-bound NRAS wild-type protein (Homo sapiens, UniProt P01111); test: Binding to NRAS by surface plasmon resonance (SPR), Single Cycle Kinetics; conditions: ratio of KD for GDP-bound NRAS wild-type protein to KD for KRAS, SPR
Sequence of GDP-bound NRAS wild-type protein (P01111 whole entry): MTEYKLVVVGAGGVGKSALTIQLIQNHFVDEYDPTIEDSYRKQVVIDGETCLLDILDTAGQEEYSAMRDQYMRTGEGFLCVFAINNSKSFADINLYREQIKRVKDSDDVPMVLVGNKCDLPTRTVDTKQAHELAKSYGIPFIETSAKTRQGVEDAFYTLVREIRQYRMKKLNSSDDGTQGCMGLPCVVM

## CCCN1C(=O)CN(C)C(=O)CN(C)C(=O)[C@H]([C@@H](C)CC)NC(=O)[C@H](CC(C)C)N(C)C(=O)C[C@@H](C(=O)N2CCCCC2)N(C)C(=O)[C@H](C2CCCC2)N(C)C(=O)C2(CCC2)NC(=O)[C@@H]2CCCN2C(=O)[C@H](CCc2ccc(C(F)(F)F)c(Cl)c2)NC(=O)CN(C)C(=O)[C@@H]1Cc1ccc(C(F)(F)F)cc1 [PP1930] ([NMeL]I[Sar][Sar][NPrPhe(4-CF3)][Sar][hPhe(3-Cl-4-CF3)]P[Ac4c][NMeGly(cPent)][NMeD]-Piperidide; lactam N-11)
[1]
  IC50: 7 nM
[2]
  HRAS/KRAS (KD ratio): C (A compound having a KD ratio of 0.1 or more and less than 3 is denoted as C)
[3]
  Kd: 0.23 nM
[4]
  NRAS/KRAS (KD ratio): B (a compound having 3 or more and less than 10 is denoted as B)

## CCO[C@@H]1C[C@H]2C(=O)NC3(CC(C)(C)C3)C(=O)N(C)[C@@H](C3CCCC3)C(=O)N(C)[C@H](C(=O)N(C)C)CC(=O)N(C)[C@@H](CC(C)C)C(=O)N[C@@H]([C@@H](C)CC)C(=O)N(C)CC(=O)N(C)[C@H]3C/C=C\CCN(C3=O)[C@@H](Cc3ccc(C(F)(F)F)cc3)C(=O)N(C)CC(=O)N[C@@H](CCc3ccc(C(F)(F)F)c(F)c3)C(=O)N2C1 [PP1931]
[1]
  IC50: 9.5 nM
[2]
  HRAS/KRAS (KD ratio): B (a compound having 3 or more and less than 10 is denoted as B)
[3]
  Kd: 0.12 nM
[4]
  NRAS/KRAS (KD ratio): A (a compound having 10 or more and less than 20 is denoted as A)

## CCC[C@H]1C(=O)N[C@@H]([C@@H](C)CC)C(=O)N(C)CC(=O)N(C)[C@H]2C/C=C\CCN(C2=O)[C@@H](Cc2ccc(C(F)(F)F)cc2)C(=O)N(C)CC(=O)N[C@@H](CCc2ccc(Cl)c(Cl)c2)C(=O)N2C[C@H](OCC)C[C@H]2C(=O)NC2(CC(C)(C)C2)C(=O)N(C)[C@@H](C2CCCC2)C(=O)N(C)[C@H](C(=O)N(C)C)CC(=O)N1C [PP1932]
[1]
  IC50: 13.1 nM
[2]
  HRAS/KRAS (KD ratio): A (a compound having 10 or more and less than 20 is denoted as A)
[3]
  Kd: 0.15 nM
[4]
  NRAS/KRAS (KD ratio): A (a compound having 10 or more and less than 20 is denoted as A)

## CCC[C@H]1C(=O)N[C@@H]([C@@H](C)CC)C(=O)N(C)CC(=O)N(C)[C@H]2C/C=C\CCN(C2=O)[C@@H](Cc2ccc(C(F)(F)F)cc2)C(=O)N(C)CC(=O)N[C@@H](CCc2cc(F)c(C(F)(F)F)c(F)c2)C(=O)N(C)[C@@H](C)C(=O)NC2(CC(C)(C)C2)C(=O)N(C)[C@@H](C2CCCC2)C(=O)N(C)[C@H](C(=O)N(C)C)CC(=O)N1C [PP1934]
[1]
  IC50: 68.5 nM
[2]
  HRAS/KRAS (KD ratio): A (a compound having 10 or more and less than 20 is denoted as A)
[3]
  Kd: 0.72 nM
[4]
  NRAS/KRAS (KD ratio): A (a compound having 10 or more and less than 20 is denoted as A)

## CC[C@H](C)[C@@H]1NC(=O)[C@H](CC)N(C)C(=O)C[C@@H](C(=O)N(C)C)N(C)C(=O)[C@H](C2CCCC2)N(C)C(=O)C2(CC(C)(C)C2)NC(=O)[C@H](CC)N(C)C(=O)[C@H](CCc2cc(F)c(C(F)(F)F)c(F)c2)NC(=O)CN(C)C(=O)[C@H](Cc2ccc(C(F)(F)F)cc2)N2CC/C=C\C[C@@H](C2=O)N(C)C(=O)CN(C)C1=O [PP1935]
[1]
  IC50: 13.1 nM
[2]
  HRAS/KRAS (KD ratio): A (a compound having 10 or more and less than 20 is denoted as A)
[3]
  Kd: 0.46 nM
[4]
  NRAS/KRAS (KD ratio): A (a compound having 10 or more and less than 20 is denoted as A)

## CCC[C@H]1C(=O)N[C@@H]([C@@H](C)CC)C(=O)N(C)CC(=O)N(C)[C@H]2C/C=C\CCN(C2=O)[C@@H](Cc2ccc(C(F)(F)F)cc2)C(=O)N(C)CC(=O)N[C@@H](CCc2cc(F)c(C(F)(F)F)c(F)c2)C(=O)N(C)[C@@H](COC)C(=O)NC2(CC(C)(C)C2)C(=O)N(C)[C@@H](C2CCCC2)C(=O)N(C)[C@H](C(=O)N(C)C)CC(=O)N1C [PP1936]
[1]
  IC50: 12.3 nM
[2]
  HRAS/KRAS (KD ratio): A (a compound having 10 or more and less than 20 is denoted as A)
[3]
  Kd: 0.4 nM
[4]
  NRAS/KRAS (KD ratio): AA (a compound having 20 or more is denoted as AA)

## CCC[C@H]1C(=O)N[C@@H]([C@@H](C)CC)C(=O)N(C)CC(=O)N(C)[C@H]2C/C=C\CCN(C2=O)[C@@H](Cc2ccc(C(F)(F)F)cc2)C(=O)N(C)CC(=O)N[C@@H](CCc2cc(F)c(C(F)(F)F)c(F)c2)C(=O)N2C[C@H](OCC)C[C@H]2C(=O)NC2(CC(C)(C)C2)C(=O)N(C)[C@@H]([C@@H](C)CC)C(=O)N(C)[C@H](C(=O)N(C)C)CC(=O)N1C [PP1941]
[1]
  IC50: 9.2 nM
[2]
  HRAS/KRAS (KD ratio): A (a compound having 10 or more and less than 20 is denoted as A)
[3]
  Kd: 0.17 nM
[4]
  NRAS/KRAS (KD ratio): A (a compound having 10 or more and less than 20 is denoted as A)

## CCO[C@@H]1C[C@H]2C(=O)NC3(CC(C)(C)C3)C(=O)N(C)[C@@H](C3CCCCC3)C(=O)N(C)[C@H](C(=O)N(C)C)CC(=O)N(C)[C@@H](CC)C(=O)N[C@@H]([C@@H](C)CC)C(=O)N(C)CC(=O)N(C)[C@H]3C/C=C\CCN(C3=O)[C@@H](Cc3ccc(C(F)(F)F)cc3)C(=O)N(C)CC(=O)N[C@@H](CCc3cc(F)c(C(F)(F)F)c(F)c3)C(=O)N2C1 [PP1942]
[1]
  IC50: 25.7 nM
[2]
  HRAS/KRAS (KD ratio): A (a compound having 10 or more and less than 20 is denoted as A)
[3]
  Kd: 0.15 nM
[4]
  NRAS/KRAS (KD ratio): AA (a compound having 20 or more is denoted as AA)

## CCC[C@H]1C(=O)N[C@@H]([C@@H](C)CC)C(=O)N(C)CC(=O)N(C)[C@H]2C/C=C\CCN(C2=O)[C@@H](Cc2ccc(C(F)(F)F)cc2)C(=O)N(C)CC(=O)N[C@@H](CCc2cc(F)c(C(F)(F)F)c(F)c2)C(=O)N2C[C@H](OCC)C[C@H]2C(=O)NC2(CC(C)(C)C2)C(=O)N(C)[C@@H](C2CCCC2)C(=O)N(C)[C@H](C(=O)N2CCC2)CC(=O)N1C [PP1943]
[1]
  IC50: 9.2 nM
[2]
  HRAS/KRAS (KD ratio): B (a compound having 3 or more and less than 10 is denoted as B)
[3]
  Kd: 0.11 nM
[4]
  NRAS/KRAS (KD ratio): A (a compound having 10 or more and less than 20 is denoted as A)

## CCO[C@@H]1C[C@H]2C(=O)NC3(CC(C)(C)C3)C(=O)N(C)[C@@H](C3CCCC3)C(=O)N(C)[C@H](C(=O)N3CCCC3)CC(=O)N(C)[C@@H](CC)C(=O)N[C@@H]([C@@H](C)CC)C(=O)N(C)CC(=O)N(C)[C@H]3C/C=C\CCN(C3=O)[C@@H](Cc3ccc(C(F)(F)F)cc3)C(=O)N(C)CC(=O)N[C@@H](CCc3cc(F)c(C(F)(F)F)c(F)c3)C(=O)N2C1 [PP1944]
[1]
  IC50: 14.8 nM
[2]
  HRAS/KRAS (KD ratio): A (a compound having 10 or more and less than 20 is denoted as A)
[3]
  Kd: 0.19 nM
[4]
  NRAS/KRAS (KD ratio): A (a compound having 10 or more and less than 20 is denoted as A)

## CCO[C@@H]1C[C@H]2C(=O)NC3(CC(C)(C)C3)C(=O)N(C)[C@@H](C3CCCC3)C(=O)N(C)[C@H](C(=O)N3CCCCC3)CC(=O)N(C)[C@@H](CC)C(=O)N[C@@H]([C@@H](C)CC)C(=O)N(C)CC(=O)N(C)[C@H]3C/C=C\CCN(C3=O)[C@@H](Cc3ccc(C(F)(F)F)cc3)C(=O)N(C)CC(=O)N[C@@H](CCc3cc(F)c(C(F)(F)F)c(F)c3)C(=O)N2C1 [PP1945]
[1]
  IC50: 33.8 nM
[2]
  HRAS/KRAS (KD ratio): A (a compound having 10 or more and less than 20 is denoted as A)
[3]
  Kd: 0.31 nM
[4]
  NRAS/KRAS (KD ratio): AA (a compound having 20 or more is denoted as AA)

## CCCN1C(=O)CN(C)C(=O)CN(C)C(=O)[C@H]([C@@H](C)CC)NC(=O)[C@H](CC(C)C)N(CC)C(=O)C[C@@H](C(=O)N2CCOCC2)N(C)C(=O)[C@H](C2CCCC2)N(C)C(=O)C2(CCC2)NC(=O)[C@@H]2CCCN2C(=O)[C@H](CCc2ccc(C(F)(F)F)c(Cl)c2)NC(=O)CN(C)C(=O)[C@@H]1Cc1ccc(C(F)(F)F)cc1 [PP1946] ([NEtLeu]I[Sar][Sar][NPrPhe(4-CF3)][Sar][hPhe(3-Cl-4-CF3)]P[Ac4c][NMeGly(cPent)][NMeD]-Morpholide; lactam N-11)
[1]
  IC50: 15.2 nM
[2]
  HRAS/KRAS (KD ratio): C (A compound having a KD ratio of 0.1 or more and less than 3 is denoted as C)
[3]
  Kd: 0.16 nM
[4]
  NRAS/KRAS (KD ratio): B (a compound having 3 or more and less than 10 is denoted as B)

## CCC[C@H]1C(=O)N[C@@H]([C@@H](C)CC)C(=O)N(CCC)CC(=O)N(C)CC(=O)N(CCC)[C@@H](Cc2ccc(C(F)(F)F)cc2)C(=O)N(C)CC(=O)N[C@@H](CCc2ccc(C(F)(F)F)c(Cl)c2)C(=O)N2CCC[C@H]2C(=O)NC2(CCC2)C(=O)N(C)[C@@H](C2CCCC2)C(=O)N(C)[C@H](C(=O)N2CCOCC2)CC(=O)N1C [PP1947] ([NMeNva]I[NPrGly][Sar][NPrPhe(4-CF3)][Sar][hPhe(3-Cl-4-CF3)]P[Ac4c][NMeGly(cPent)][NMeD]-Morpholide; lactam N-11)
[1]
  IC50: 22 nM
[2]
  HRAS/KRAS (KD ratio): B (a compound having 3 or more and less than 10 is denoted as B)
[3]
  Kd: 0.37 nM
[4]
  NRAS/KRAS (KD ratio): B (a compound having 3 or more and less than 10 is denoted as B)

## CCCN1C(=O)CN(C)C(=O)CN(C)C(=O)[C@H]([C@@H](C)CC)NC(=O)[C@H](CC(C)C)N(C)C(=O)C[C@@H](C(=O)N2CCOCC2)N(C)C(=O)[C@H](C2CCCC2)N(C)C(=O)C2(CCC2)NC(=O)[C@@H]2CCCN2C(=O)[C@H](CCc2ccc(C(F)(F)F)c(Cl)c2)NC(=O)CN(CC)C(=O)[C@@H]1Cc1ccc(C(F)(F)F)cc1 [PP1950] ([NMeL]I[Sar][Sar][NPrPhe(4-CF3)][NEtG][hPhe(3-Cl-4-CF3)]P[Ac4c][NMeGly(cPent)][NMeD]-Morpholide; lactam N-11)
[1]
  IC50: 32.5 nM
[2]
  HRAS/KRAS (KD ratio): C (A compound having a KD ratio of 0.1 or more and less than 3 is denoted as C)
[3]
  Kd: 1.9 nM
[4]
  NRAS/KRAS (KD ratio): B (a compound having 3 or more and less than 10 is denoted as B)
